Assay results from ChEMBL document CHEMBL4261600 (Eur J Med Chem, 2018).

Molecular target: Macrophage colony-stimulating factor 1 receptor (Homo sapiens) (UniProt P07333)
Assay: Binding affinity to wild-type human partial length autoinhibited CSF1R (Y538 to S939 residues) expressed in mammalian expression system assessed as remaining unbound target protein level at 1000 nM by Kinomescan method relative to control

Chain of Macrophage colony-stimulating factor 1 receptor (Homo sapiens) (P07333 whole entry, the tested form may be a part): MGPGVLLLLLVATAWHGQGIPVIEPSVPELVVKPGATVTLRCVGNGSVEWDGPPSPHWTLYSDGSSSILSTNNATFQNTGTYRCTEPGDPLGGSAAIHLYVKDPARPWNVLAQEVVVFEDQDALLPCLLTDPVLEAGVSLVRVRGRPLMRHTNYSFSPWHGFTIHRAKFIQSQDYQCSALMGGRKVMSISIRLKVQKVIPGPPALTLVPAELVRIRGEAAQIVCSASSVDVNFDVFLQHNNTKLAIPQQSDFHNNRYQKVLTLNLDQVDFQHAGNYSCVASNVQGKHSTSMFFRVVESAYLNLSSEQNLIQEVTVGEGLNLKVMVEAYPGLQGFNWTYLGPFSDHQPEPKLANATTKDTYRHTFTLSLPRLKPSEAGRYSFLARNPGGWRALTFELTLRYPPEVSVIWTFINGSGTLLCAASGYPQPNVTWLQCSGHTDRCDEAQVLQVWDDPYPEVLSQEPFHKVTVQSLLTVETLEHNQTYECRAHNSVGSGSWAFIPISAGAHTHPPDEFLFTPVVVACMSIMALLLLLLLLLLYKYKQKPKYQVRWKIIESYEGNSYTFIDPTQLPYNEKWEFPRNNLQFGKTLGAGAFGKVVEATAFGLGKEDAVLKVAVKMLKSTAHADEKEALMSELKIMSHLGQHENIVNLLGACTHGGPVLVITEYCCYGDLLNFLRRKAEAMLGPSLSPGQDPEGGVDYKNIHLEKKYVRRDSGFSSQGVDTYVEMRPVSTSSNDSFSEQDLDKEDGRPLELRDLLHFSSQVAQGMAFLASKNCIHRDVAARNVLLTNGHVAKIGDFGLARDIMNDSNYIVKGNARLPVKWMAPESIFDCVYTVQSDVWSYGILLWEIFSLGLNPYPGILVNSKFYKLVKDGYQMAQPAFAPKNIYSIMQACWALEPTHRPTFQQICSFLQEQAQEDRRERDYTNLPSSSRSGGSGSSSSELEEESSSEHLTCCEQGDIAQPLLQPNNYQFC

**Q.** COCCN[C@H]1CC[C@H](Nc2cc(-c3csc(NCC4(C#N)CCOCC4)n3)c(Cl)cn2)CC1 was tested. Which Activity did it give?
**A.** 90%
